Data reported in US20250304644A1, “PEPTIDES TRIPLE AGONISTS OF GIP, GLP-1 AND GLP-2” (BAINAN BIOTECH APS, priority 2021, published 2025).
Several values for one entry are separate records, joined by “and”; a condition that tells them apart may be missing. Equal entries are not always repeated. Where two headings read alike, the source gives them in different places. *1 amine or outer side, *2 acyl side, *3 side chain or, on linkers, in order; H or OH if unused. Where a SMILES comes first, the peptide text is derived from it. Side-chain parts run from the residue outwards. [ ]: non-standard residue; d: D form. The star is where a group is joined. C18 diacid = O=C(O)CCCCCCCCCCCCCCCCC(=O)*; γGlu = O=C(O)[C@H](CCC(=O)[*:2])N[*:1]; AEEA = NCCOCCOCC(=O)O; Aib = CC(C)(N)C(=O)O

What was measured:
Format in all cases: cell-based
human SNAP-tagged GIPR = target: T1, human SNAP-tagged GIPR (Homo sapiens, UniProt P48546); experiment: Receptor internalization assay, HEK293A cells expressing human SNAP-tagged GIPR
T1 construct: host or cells: HEK293A
T1 sequence (P48546 22-466): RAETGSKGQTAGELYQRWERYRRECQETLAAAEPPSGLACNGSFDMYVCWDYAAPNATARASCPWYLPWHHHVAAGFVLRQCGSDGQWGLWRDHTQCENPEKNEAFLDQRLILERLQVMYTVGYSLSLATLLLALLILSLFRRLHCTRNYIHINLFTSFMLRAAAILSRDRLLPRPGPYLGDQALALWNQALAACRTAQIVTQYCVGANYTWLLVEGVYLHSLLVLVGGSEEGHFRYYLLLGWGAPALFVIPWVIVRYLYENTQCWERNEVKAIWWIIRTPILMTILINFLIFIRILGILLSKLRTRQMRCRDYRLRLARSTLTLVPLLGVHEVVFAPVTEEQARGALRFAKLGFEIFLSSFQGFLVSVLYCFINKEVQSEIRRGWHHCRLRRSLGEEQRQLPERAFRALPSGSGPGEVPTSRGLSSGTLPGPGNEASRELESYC

human GLP-2R = target: T2, human GLP-2R (Homo sapiens, UniProt O95838); experiment: cAMP assay (HitHunter) in transiently transfected COS-7 cells expressing human GLP-2R; conditions: for EC50: cAMP, COS-7 cells, human GLP-2R, read-out: EC50 (nM) GLP-2R
T2 construct: host or cells: COS-7
T2 sequence (O95838 1-553): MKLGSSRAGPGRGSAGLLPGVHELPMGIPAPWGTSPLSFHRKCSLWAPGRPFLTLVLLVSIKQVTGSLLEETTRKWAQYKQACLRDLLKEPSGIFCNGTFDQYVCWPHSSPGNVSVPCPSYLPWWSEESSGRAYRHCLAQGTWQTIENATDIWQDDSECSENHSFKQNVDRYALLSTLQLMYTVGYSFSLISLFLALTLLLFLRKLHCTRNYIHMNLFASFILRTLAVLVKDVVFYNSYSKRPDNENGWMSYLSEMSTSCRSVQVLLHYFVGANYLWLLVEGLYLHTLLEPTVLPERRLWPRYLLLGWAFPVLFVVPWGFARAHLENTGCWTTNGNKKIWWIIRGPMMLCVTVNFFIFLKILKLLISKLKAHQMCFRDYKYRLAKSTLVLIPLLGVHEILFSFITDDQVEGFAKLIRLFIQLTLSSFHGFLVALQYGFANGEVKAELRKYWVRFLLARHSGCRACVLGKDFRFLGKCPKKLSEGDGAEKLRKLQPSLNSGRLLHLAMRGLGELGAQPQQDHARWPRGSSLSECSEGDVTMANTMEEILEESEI

human SNAP-tagged GLP-1R = target: T3, human SNAP-tagged GLP-1R (Homo sapiens, UniProt P43220); experiment: Receptor internalization assay, HEK293A cells expressing human SNAP-tagged GLP-1R; conditions: for Absolute hGLP-1R internalization (AUC): AUC of sigmoid curves up to 1 μM, 60 minutes at 37° C.; for Relative hGLP-1R internalization (%): relative to hGLP-1 = 100
T3 construct: expressed in transfected cells; host or cells: HEK293A

[1] = target: human glucagon receptor (GCGR) (Homo sapiens, UniProt P47871); experiment: Gs activation measured as cAMP accumulation on human glucagon receptor (FIG. 1 radar plot); conditions: read-out: −p Log EC50 on human glucagon receptor (GCGR) (converted)
Excerpt: Here, the compounds 20, 21, 22, 28, 30, 31,32, 33, 34, 35 are shown in terms of their potencies in Gs activation, measured as CAMP accumulation, depicted in a radar plot. The numbers refer to −p Log EC50 values. […] The outer rings correspond to higher potencies, the inner rings correspond to lower potencies.

human SNP-tagged GLP-2R = target: T4, human SNP-tagged GLP-2R (Homo sapiens, UniProt O95838); experiment: Receptor internalization assay, HEK293A cells expressing human SNAP-tagged GLP-2R; conditions: for Absolute hGLP-2R internalization (AUC): AUC of sigmoid curves up to 1 μM, 60 minutes at 37° C.; for Relative hGLP-2R internalization (%): relative to native ligand = 100
T4 construct: expressed in transfected cells; host or cells: HEK293A
T4 sequence (O95838 1-553): T2 sequence (O95838 1-553)

human GLP-1R = target: T5, human GLP-1R (Homo sapiens, UniProt P43220); experiment: cAMP assay (HitHunter) in transiently transfected COS-7 cells expressing human GLP-1R
T5 construct: host or cells: COS-7

human GIPR = target: T6, human GIPR (Homo sapiens, UniProt P48546); experiment: cAMP assay (HitHunter) in transiently transfected COS-7 cells expressing human GIPR
T6 construct: host or cells: COS-7
T6 sequence (P48546 22-466): T1 sequence (P48546 22-466)

[2] = AUC of sigmoid curves up to 1 μM, 60 minutes at 37° C.
[3] = COS-7, normalized to highest concentration of the endogenous ligand, read-out: Efficacy GLP-2R (Emax)
[4] = COS-7, normalized to highest concentration of the endogenous ligand, read-out: Efficacy GLP-1R (Emax)
[5] = COS-7, normalized to highest concentration of the endogenous ligand, read-out: Efficacy GIPR (Emax)
[6] = COS-7, read-out: Efficacy GLP-2R (Emax)
[7] = COS-7, read-out: Efficacy GLP-1R (Emax)
[8] = COS-7, read-out: Efficacy GIPR (Emax)

T3 sequence (P43220 24-463): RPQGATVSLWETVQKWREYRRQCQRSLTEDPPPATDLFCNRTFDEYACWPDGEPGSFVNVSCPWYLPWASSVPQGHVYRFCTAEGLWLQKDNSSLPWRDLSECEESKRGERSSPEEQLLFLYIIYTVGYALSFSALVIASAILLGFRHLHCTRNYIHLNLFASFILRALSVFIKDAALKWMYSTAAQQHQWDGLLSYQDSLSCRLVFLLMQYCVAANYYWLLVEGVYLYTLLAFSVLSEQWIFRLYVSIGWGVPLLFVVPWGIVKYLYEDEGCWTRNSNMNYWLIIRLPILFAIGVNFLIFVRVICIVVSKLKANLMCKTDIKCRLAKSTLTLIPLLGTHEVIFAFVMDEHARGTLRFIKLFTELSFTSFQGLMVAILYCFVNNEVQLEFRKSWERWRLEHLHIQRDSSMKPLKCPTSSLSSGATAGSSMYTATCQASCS
T5 sequence (P43220 24-463): as above
human glucagon receptor (GCGR), sequence (P47871 26-477): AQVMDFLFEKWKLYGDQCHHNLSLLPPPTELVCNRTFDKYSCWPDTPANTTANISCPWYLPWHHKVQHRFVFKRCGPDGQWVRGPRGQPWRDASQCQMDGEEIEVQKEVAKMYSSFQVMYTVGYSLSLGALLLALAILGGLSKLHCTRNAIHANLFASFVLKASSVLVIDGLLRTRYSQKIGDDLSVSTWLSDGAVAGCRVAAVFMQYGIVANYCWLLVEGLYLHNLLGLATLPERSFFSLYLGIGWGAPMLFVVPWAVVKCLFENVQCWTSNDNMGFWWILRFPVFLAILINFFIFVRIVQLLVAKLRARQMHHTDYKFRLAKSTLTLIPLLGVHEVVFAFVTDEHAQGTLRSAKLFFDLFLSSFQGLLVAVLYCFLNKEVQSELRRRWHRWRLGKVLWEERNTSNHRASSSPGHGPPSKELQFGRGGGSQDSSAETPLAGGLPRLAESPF

SMILES	Absolute hGIPR internalization (AUC) (human SNAP-tagged GIPR; [2])	Relative hGIPR internalization (%) (human SNAP-tagged GIPR; relative to hGIP 1-42 = 100)	Emax (human GLP-2R; [3])	EC50 (human GLP-2R)	Absolute hGLP-1R internalization (AUC) (human SNAP-tagged GLP-1R)	Relative hGLP-1R internalization (%) (human SNAP-tagged GLP-1R)	EC50 [1]	Absolute hGLP-2R internalization (AUC) (human SNP-tagged GLP-2R)	Relative hGLP-2R internalization (%) (human SNP-tagged GLP-2R)	Emax (human GLP-1R; [4])	EC50 (human GLP-1R; cAMP, COS-7 cells, human GLP-1R, read-out: EC50 (nM) GLP-1R)	Emax (human GIPR; [5])	Absolute hGIPR internalization (AUC) (human SNAP-tagged GIPR)	Relative hGIPR internalization (%) (human SNAP-tagged GIPR)	Emax (human GLP-2R; [6])	Emax (human GLP-1R; [7])	Emax (human GIPR; [8])	loss in GIP potency in cAMP (human GIPR; fatty acid in position 17 compared to position 16 (Compound 30))
CC[C@H](C)[C@H](NC(=O)[C@H](Cc1ccccc1)NC(=O)[C@H](CC(=O)O)NC(=O)[C@H](CCCNC(=N)N)NC(=O)[C@H](C)NC(=O)[C@H](C)NC(=O)[C@H](CC(C)C)NC(=O)[C@H](C)NC(=O)[C@H](CC(=O)O)NC(=O)[C@H](CC(C)C)NC(=O)[C@@H](NC(=O)[C@@H](NC(=O)[C@H](CO)NC(=O)[C@H](Cc1ccc(O)cc1)NC(=O)[C@H](CC(=O)O)NC(=O)[C@H](CO)NC(=O)[C@@H](NC(=O)[C@H](Cc1ccccc1)NC(=O)[C@@H](NC(=O)CNC(=O)[C@H](CC(=O)O)NC(=O)C(C)(C)NC(=O)[C@@H](N)Cc1c[nH]cn1)[C@@H](C)O)[C@@H](C)CC)[C@@H](C)O)[C@@H](C)CC)C(=O)N[C@@H](CC(N)=O)C(=O)N[C@@H](Cc1c[nH]c2ccccc12)C(=O)N[C@@H](CC(C)C)C(=O)N[C@H](C(=O)N[C@@H](CCC(N)=O)C(=O)N[C@H](C(=O)N[C@@H](CCCCN)C(=O)N[C@H](C(=O)N[C@H](C(=O)N[C@@H](CCCCNC(=O)COCCOCCNC(=O)COCCOCCNC(=O)CC[C@H](NC(=O)CCCCCCCCCCCCCCCCC(=O)O)C(=O)O)C(=O)O)[C@@H](C)O)[C@@H](C)CC)[C@@H](C)O)[C@@H](C)CC [Compound 28] (H-H[Aib]DGTFISDYSTILDALAARDFINWLIQTKITK([AEEA-AEEA-γGlu-C18 diacid])-OH; N-terminus assumed)	21.7	58% and 59%	89%	2.2 nM	0.96	1.14%	> 100 nM	12.0	24.8%	102%	3.98 nM	119%	–	–	–	–	–	–
CC[C@H](C)[C@H](NC(=O)[C@H](Cc1ccccc1)NC(=O)[C@H](CC(=O)O)NC(=O)[C@H](CCCNC(=N)N)NC(=O)[C@H](C)NC(=O)[C@H](C)NC(=O)[C@H](CC(C)C)NC(=O)[C@H](CCCCNC(=O)COCCOCCNC(=O)COCCOCCNC(=O)CC[C@H](NC(=O)CCCCCCCCCCCCCCCCC(=O)O)C(=O)O)NC(=O)[C@H](CC(=O)O)NC(=O)[C@H](CC(C)C)NC(=O)[C@@H](NC(=O)[C@@H](NC(=O)[C@H](CO)NC(=O)[C@H](Cc1ccc(O)cc1)NC(=O)[C@H](CC(=O)O)NC(=O)[C@H](CO)NC(=O)[C@@H](NC(=O)[C@H](Cc1ccccc1)NC(=O)[C@@H](NC(=O)CNC(=O)[C@H](CC(=O)O)NC(=O)[C@H](C)NC(=O)[C@@H](N)Cc1c[nH]cn1)[C@@H](C)O)[C@@H](C)CC)[C@@H](C)O)[C@@H](C)CC)C(=O)N[C@@H](CC(N)=O)C(=O)N[C@@H](Cc1c[nH]c2ccccc12)C(=O)N[C@@H](CC(C)C)C(=O)N[C@H](C(=O)N[C@@H](CCC(N)=O)C(=O)N[C@H](C(=O)N[C@@H](CCCCN)C(=O)NCC(=O)N[C@@H](CCCCN)C(=O)N[C@@H](CCCCN)C(=O)O)[C@@H](C)O)[C@@H](C)CC [Compound 30]	–	–	–	–	7.3	8.6%	> 100 nM	22.7	46.8%	–	–	–	21.0	57%	73%	93%	98%	–
CC[C@H](C)[C@H](NC(=O)[C@H](Cc1ccccc1)NC(=O)[C@H](CC(=O)O)NC(=O)[C@H](CCCNC(=N)N)NC(=O)[C@H](C)NC(=O)[C@H](C)NC(=O)[C@H](CC(C)C)NC(=O)[C@H](CCCCNC(=O)COCCOCCNC(=O)COCCOCCNC(=O)CC[C@H](NC(=O)CCCCCCCCCCCCCCCCC(=O)O)C(=O)O)NC(=O)[C@H](CC(=O)O)NC(=O)[C@H](CC(C)C)NC(=O)C(C)(C)NC(=O)[C@@H](NC(=O)[C@H](CO)NC(=O)[C@H](Cc1ccc(O)cc1)NC(=O)[C@H](CC(=O)O)NC(=O)[C@H](CO)NC(=O)[C@@H](NC(=O)[C@H](Cc1ccccc1)NC(=O)[C@@H](NC(=O)CNC(=O)[C@H](CC(=O)O)NC(=O)[C@H](C)NC(=O)[C@@H](N)Cc1c[nH]cn1)[C@@H](C)O)[C@@H](C)CC)[C@@H](C)O)C(=O)N[C@@H](CC(N)=O)C(=O)N[C@@H](Cc1c[nH]c2ccccc12)C(=O)N[C@@H](CC(C)C)C(=O)N[C@H](C(=O)N[C@@H](CCC(N)=O)C(=O)N[C@H](C(=O)N[C@@H](CCCCN)C(=O)NCC(=O)N[C@@H](CCCCN)C(=O)N[C@@H](CCCCN)C(=O)O)[C@@H](C)O)[C@@H](C)CC [Compound 31]	–	–	–	–	4.9	5.8%	> 100 nM	30.6	63.0%	–	–	–	16.0	43%	79%	89%	85%	–
CC[C@H](C)[C@H](NC(=O)[C@H](Cc1ccccc1)NC(=O)[C@H](CC(=O)O)NC(=O)[C@H](CCCNC(=N)N)NC(=O)[C@H](C)NC(=O)[C@H](C)NC(=O)[C@H](CCCCNC(=O)COCCOCCNC(=O)COCCOCCNC(=O)CC[C@H](NC(=O)CCCCCCCCCCCCCCCCC(=O)O)C(=O)O)NC(=O)[C@H](CC(N)=O)NC(=O)[C@H](CC(=O)O)NC(=O)[C@H](CC(C)C)NC(=O)[C@@H](NC(=O)[C@@H](NC(=O)[C@H](CO)NC(=O)[C@H](Cc1ccc(O)cc1)NC(=O)[C@H](CC(=O)O)NC(=O)[C@H](CO)NC(=O)[C@@H](NC(=O)[C@H](Cc1ccccc1)NC(=O)[C@@H](NC(=O)CNC(=O)[C@H](CC(=O)O)NC(=O)[C@H](C)NC(=O)[C@@H](N)Cc1c[nH]cn1)[C@@H](C)O)[C@@H](C)CC)[C@@H](C)O)[C@@H](C)CC)C(=O)N[C@@H](CC(N)=O)C(=O)N[C@@H](Cc1c[nH]c2ccccc12)C(=O)N[C@@H](CC(C)C)C(=O)N[C@H](C(=O)N[C@@H](CCC(N)=O)C(=O)N[C@H](C(=O)N[C@@H](CCCCN)C(=O)NCC(=O)N[C@@H](CCCCN)C(=O)N[C@@H](CCCCN)C(=O)O)[C@@H](C)O)[C@@H](C)CC [Compound 32] (H-HADGTFISDYSTILDNK([AEEA-AEEA-γGlu-C18 diacid])AARDFINWLIQTKGKK-OH)	6.5	18%	77%	3.2 nM	7.0	8.3%	> 100 nM	15.0	30.8%	84%	–	80%	–	–	–	–	–	> 10 fold
